The text below walks through data of patent US20260297060A1, “COMPOUNDS FOR THE DEGRADATION OF MUTANT BRAF” (C4 THERAPEUTICS, INC., priority 2023, published 2026).

The GI50 is the concentration at which growth is held to half of that of the control. Lower therefore signals more potent growth inhibition.

The test concerns A375-NRAS^Q61K cells. The test can be described thus: CTGlo Cell Viability Assay, A375-NRAS^Q61K (A375.11) cells, 96 hours. The conditions noted are these: A375.11 (A375-NRAS^Q61K) cells; for Emax / CTGlo A375.11 96 hours Emax: lowest % viability achieved. The format is cell-based, human. The essentials:
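Viability as CellTiter-Glo ATP luminescence after 96 h compound exposure at 37 °C; A375.11 (BRAF V600E/NRAS Q61K) cells at 250/well, top final concentration 10 μM in half-log steps. Signal was background-corrected and set relative to DMSO controls. A 4-parameter logistic fit gave GI50 (50% crossing) and Emax.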

Take `CCN(C)S(=O)(=O)Nc1ccc(F)c(Oc2ccc3ncn([C@H]4COC5(CCN(C6CC7(C6)CN(c6cc8c(cc6F)c(N6CCC(=O)NC6=O)nn8C)C7)CC5)C4)c(=O)c3c2)c1C#N` [Compound 26, (3R)-3-[6-[2-cyano-3-[[ethyl(methyl)sulfamoyl]amino]-6-fluoro-phenoxy]-4-oxo-quinazolin-3-yl]-8-[2-[3-(2,4-dioxohexahydropyrimidin-1-yl)-5-fluoro-1-methyl-indazol-6-yl]-2-azaspiro[3.3]heptan-6-yl]-1-oxa-8-azaspiro[4.5]decane]: for the setting “Homo sapiens, 96 h”, the GI50 is less than 1000 nM and the Emax lay within 50 to 90%.

In the case of `CCN(C)S(=O)(=O)Nc1ccc(F)c(Oc2ccc3ncn(C4CC5(CCN(C6CCN(c7cc8c(cc7F)c(N7CCC(=O)NC7=O)nn8C)CC6)CC5)C4)c(=O)c3c2)c1C#N` [Compound 156, 6-[2-cyano-3-[[ethyl(methyl)sulfamoyl]amino]-6-fluoro-phenoxy]-3-[7-[1-[3-(2,4-dioxohexahydropyrimidin-1-yl)-5-fluoro-1-methyl-indazol-6-yl]-4-piperidyl]-7-azaspiro[3.5]nonan-2-yl]-4-oxo-quinazoline], where the note is “Homo sapiens, 96 h”, the concentration for 50% growth inhibition (GI50) is less than 1000 nM and the Emax was 50 to 90%.

For the setting “Homo sapiens, 96 h”, `Cn1nc(N2CCC(=O)NC2=O)c2cc(F)c(N3CC4(CC(N5CCC6(CC5)CC(n5cnc7ccc(Oc8c(F)ccc(NS(=O)(=O)C9CCCC9)c8C#N)cc7c5=O)C6)C4)C3)cc21` [Compound 250, N-[2-cyano-3-[3-[7-[2-[3-(2,4-dioxohexahydropyrimidin-1-yl)-5-fluoro-1-methyl-indazol-6-yl]-2-azaspiro[3.3]heptan-6-yl]-7-azaspiro[3.5]nonan-2-yl]-4-oxo-quinazolin-6-yl]oxy-4-fluoro-phenyl]cyclopentanesulfonamide] had a GI50 of less than 1000 nM and an Emax of less than 50%.

With `CC(C)S(=O)(=O)Nc1ccc(F)c(Oc2ccc3ncn(C4CC5(CCN(C6CCC(c7cc8c(cc7F)c(N7CCC(=O)NC7=O)nn8C)CC6)CC5)C4)c(=O)c3c2)c1C#N` (single isomer, unassigned) [Compound 95, N-[2-cyano-3-[3-[7-[4-[3-(2,4-dioxohexahydropyrimidin-1-yl)-5-fluoro-1-methyl-indazol-6-yl]cyclohexyl]-7-azaspiro[3.5]nonan-2-yl]-4-oxo-quinazolin-6-yl]oxy-4-fluoro-phenyl]propane-2-sulfonamide], where the note is “Homo sapiens, 96 h”, the GI50 was less than 1000 nM and the Emax is 50 to 90%.

For the setting “Homo sapiens, 96 h”, `CCN(C)S(=O)(=O)Nc1ccc(F)c(Oc2ccc3ncn([C@H]4COC5(CCC(N6CCC(c7cc8c(cc7F)c(N7CCC(=O)NC7=O)nn8C)C(F)(F)C6)CC5)C4)c(=O)c3c2)c1C#N` (single isomer, unassigned) [Compound 38] displayed a GI50 of less than 1000 nM and an Emax of less than 50%.

Under “Homo sapiens, 96 h”, `CC(C)S(=O)(=O)Nc1ccc(F)c(Oc2ccc3ncn(C4CC5(CCN(C6CC7(C6)CN(c6cc8c(cc6F)c(N6CCC(=O)NC6=O)nn8C)C7)CC5)C4)c(=O)c3c2)c1C#N` (stereo not drawn) [Compound 273, N-[2-cyano-3-[3-[7-[2-[3-(2,4-dioxohexahydropyrimidin-1-yl)-5-fluoro-1-methyl-indazol-6-yl]-2-azaspiro[3.3]heptan-6-yl]-7-azaspiro[3.5]nonan-2-yl]-4-oxo-quinazolin-6-yl]oxy-4-fluoro-phenyl]propane-2-sulfonamide] displayed a GI50 of less than 1000 nM and an Emax of less than 50%.

Where the note is “Homo sapiens, 96 h”, `CCN(C)S(=O)(=O)Nc1ccc(F)c(Oc2ccc3ncn([C@H]4COC5(CCN(C6CC(c7cc8c(cc7F)c(N7CCC(=O)NC7=O)nn8C)C6)CC5)C4)c(=O)c3c2)c1C#N` (single isomer, unassigned) [Compound 70] registered a concentration for 50% growth inhibition (GI50) of less than 1000 nM and an Emax of less than 50%.

Where the note is “Homo sapiens, 96 h”, `CCN(C)S(=O)(=O)Nc1ccc(F)c(Oc2ccc3ncn([C@H]4COC5(CCN(C6CCC(c7ccc(N[C@H]8CCC(=O)NC8=O)cc7F)CC6)CC5)C4)c(=O)c3c2)c1C#N` (single isomer, unassigned) [Compound 3] yielded a GI50 of less than 1000 nM and an Emax of less than 50%.

`CCN(C)S(=O)(=O)Nc1ccc(F)c(Oc2ccc3ncn([C@@H]4COC5(CCN(C6CCC(c7ccc(NC8CCC(=O)NC8=O)cc7F)CC6)CC5)C4)c(=O)c3c2F)c1C#N` (single isomer, unassigned) [Compound 52] returned a GI50 greater than 10000 nM. The Emax (Homo sapiens, 96 h) is 50 to 90%.

As for `CCN(C)S(=O)(=O)Nc1ccc(F)c(Oc2ccc3ncn(C4CC5(CCN(C6CC7(C6)CN(c6cc8c(cc6F)c(N6CCC(=O)NC6=O)nn8C)C7)CC5)C4)c(=O)c3c2)c1C#N` (stereo not drawn) [Compound 141, 6-[2-cyano-3-[[ethyl(methyl)sulfamoyl]amino]-6-fluoro-phenoxy]-3-[7-[2-[3-(2,4-dioxohexahydropyrimidin-1-yl)-5-fluoro-1-methyl-indazol-6-yl]-2-azaspiro[3.3]heptan-6-yl]-7-azaspiro[3.5]nonan-2-yl]-4-oxo-quinazoline], under “Homo sapiens, 96 h”, the GI50 was less than 1000 nM and the Emax lay within 50 to 90%.

Where the note is “Homo sapiens, 96 h”, `CCN(C)S(=O)(=O)Nc1ccc(F)c(Oc2ccc3ncn([C@@H]4C[C@@H]5CN(C6CCC(c7ccc(NC8CCC(=O)NC8=O)cc7F)CC6)C[C@@H]5C4)c(=O)c3c2)c1C#N` (single isomer, unassigned) [Compound 21] yielded a GI50 of 1000 to 10000 nM and an Emax of 50 to 90%.

Under “Homo sapiens, 96 h”, `CCN(C)S(=O)(=O)Nc1ccc(F)c(Oc2ccc3ncn(CC4CCN(C5CCC(c6cc7c(cc6F)c(N6CCC(=O)NC6=O)nn7C)CC5)CC4)c(=O)c3c2)c1C#N` (single isomer, unassigned) [Compound 126, 6-[2-cyano-3-[[ethyl(methyl)sulfamoyl]amino]-6-fluoro-phenoxy]-3-[[1-[4-[3-(2,4-dioxohexahydropyrimidin-1-yl)-5-fluoro-1-methyl-indazol-6-yl]cyclohexyl]-4-piperidyl]methyl]-4-oxo-quinazoline] registered a GI50 of 1000 to 10000 nM and an Emax of 50 to 90%.

Consider `CCN(C)S(=O)(=O)Nc1ccc(F)c(Oc2ccc3ncn(C4CC5(CCN(C6CCC(c7cc8c(cc7F)c(N7CCC(=O)NC7=O)nn8C)CC6F)CC5)C4)c(=O)c3c2)c1C#N` (single isomer, unassigned) [Compound 85], for which the GI50 was less than 1000 nM and the “CTGlo A375.11 96 hours Emax” value is reported as “*** (<=50%)”.

As for `CCN(C)S(=O)(=O)Nc1ccc(F)c(Oc2ccc3ncn(C4CC5(C4)CN(C4CCC(c6cc7c(cc6F)c(N6CCC(=O)NC6=O)nn7C)CC4)C5)c(=O)c3c2)c1C#N` (single isomer, unassigned) [Compound 204, 6-[2-cyano-3-[[ethyl(methyl)sulfamoyl]amino]-6-fluoro-phenoxy]-3-[2-[4-[3-(2,4-dioxohexahydropyrimidin-1-yl)-5-fluoro-1-methyl-indazol-6-yl]cyclohexyl]-2-azaspiro[3.3]heptan-6-yl]-4-oxo-quinazoline], the GI50 is less than 1000 nM; the “CTGlo A375.11 96 hours Emax” value is “** (<90% and >50%)”.

For `CCN(C)S(=O)(=O)Nc1ccc(F)c(Oc2ccc3ncn(C4CC5(CCN(C6CC7(CCN(c8cc9c(cc8F)c(N8CCC(=O)NC8=O)nn9C)CC7)C6)CC5)C4)c(=O)c3c2)c1C#N` (stereo not drawn) [Compound 198, 6-[2-cyano-3-[[ethyl(methyl)sulfamoyl]amino]-6-fluoro-phenoxy]-3-[7-[7-[3-(2,4-dioxohexahydropyrimidin-1-yl)-5-fluoro-1-methyl-indazol-6-yl]-7-azaspiro[3.5]nonan-2-yl]-7-azaspiro[3.5]nonan-2-yl]-4-oxo-quinazoline], under “Homo sapiens, 96 h”, the GI50 was in the range of 1000 to 10000 nM and the Emax is less than 50%.
